Experimental data: patent US9745310B2 (SK BIOPHARMACEUTICALS CO., LTD., priority 2015, dated 2017)
pEC50: −log10 of the molar value.

These molecules were tested against human mGluR5 receptor (Homo sapiens (Human), UniProt P41594) (assay: Calcium influx assay based on fluorescence (mGluR5 PAM activity)). Conditions: human mGluR5 receptor-overexpressed HEK293 cell line; L-glutamate EC20; Fluo-4, FLIPR.
Outline: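 HEK293 cells overexpressing human mGluR5, loaded 1 h with Fluo-4 at 37° C. Compounds (10 μM to 10 nM final, 0.1–0.2% DMSO) added with an EC20 concentration of L-glutamate, and Ca2+ response read by FLIPR at room temperature. Activity scaled as 0% for EC20 glutamate alone and 100% for glutamate maximum.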

Chain of human mGluR5 receptor (P41594 21-1212): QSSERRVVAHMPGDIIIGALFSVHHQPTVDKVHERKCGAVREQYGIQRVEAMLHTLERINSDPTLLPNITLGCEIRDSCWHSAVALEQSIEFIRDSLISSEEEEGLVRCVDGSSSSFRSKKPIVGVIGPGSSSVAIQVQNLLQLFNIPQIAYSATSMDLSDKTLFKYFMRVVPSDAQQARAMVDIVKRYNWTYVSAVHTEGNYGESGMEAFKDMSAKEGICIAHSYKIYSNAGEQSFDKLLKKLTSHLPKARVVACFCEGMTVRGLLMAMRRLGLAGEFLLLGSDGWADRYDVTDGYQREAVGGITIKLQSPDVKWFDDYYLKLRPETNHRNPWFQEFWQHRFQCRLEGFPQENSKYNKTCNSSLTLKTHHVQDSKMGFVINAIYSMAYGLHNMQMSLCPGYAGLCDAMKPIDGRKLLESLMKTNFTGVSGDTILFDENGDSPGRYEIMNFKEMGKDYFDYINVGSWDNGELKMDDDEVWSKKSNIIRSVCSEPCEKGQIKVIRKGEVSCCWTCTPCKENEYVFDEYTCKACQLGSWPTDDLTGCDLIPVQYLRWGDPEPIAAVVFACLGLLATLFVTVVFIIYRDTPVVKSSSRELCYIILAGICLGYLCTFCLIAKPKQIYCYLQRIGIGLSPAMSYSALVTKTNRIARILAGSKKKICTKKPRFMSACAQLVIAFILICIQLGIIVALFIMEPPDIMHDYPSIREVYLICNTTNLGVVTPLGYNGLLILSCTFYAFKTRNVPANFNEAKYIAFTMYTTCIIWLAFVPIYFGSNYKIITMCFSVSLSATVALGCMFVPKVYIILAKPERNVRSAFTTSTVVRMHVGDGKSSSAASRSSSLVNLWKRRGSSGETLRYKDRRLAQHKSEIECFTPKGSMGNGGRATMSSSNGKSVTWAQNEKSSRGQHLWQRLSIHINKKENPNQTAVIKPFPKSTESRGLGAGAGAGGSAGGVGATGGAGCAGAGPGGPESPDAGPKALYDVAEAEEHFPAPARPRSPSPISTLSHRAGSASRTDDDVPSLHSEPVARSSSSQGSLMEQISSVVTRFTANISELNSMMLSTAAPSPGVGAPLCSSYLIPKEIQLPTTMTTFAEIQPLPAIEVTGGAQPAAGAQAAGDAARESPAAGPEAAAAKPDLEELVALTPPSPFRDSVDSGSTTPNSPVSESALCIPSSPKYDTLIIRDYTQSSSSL

pEC50	SMILES
6.00 to 6.30	Cc1ccc(N)c(-c2cnc3nc(COc4cccc(F)c4)cn3c2)c1 [Example 100, 2-[2-[(3-fluorophenoxy)methyl]imidazo[1,2-a]pyrimidin-6-yl]-4-methyl-aniline]
6.00 to 6.30	Cc1cc(F)ccc1-c1cnc2nc(COc3cncc(Cl)c3)cn2c1 [Example 160, 6-(4-fluoro-2-methylphenyl)-2-(5-chloropyridin-3-yloxymethyl)imidazo[1,2-a]pyrimidine]
6.30 to 7.00	COc1cc(F)ccc1-c1cnc2nc(COc3ccnc(F)c3)cn2c1 [Example 163, 6-(4-fluoro-2-methoxyphenyl)-2-(2-fluoropyridin-4-yloxymethyl)imidazo[1,2-a]pyrimidine]
6.30 to 7.00	CSc1cc(F)ccc1-c1cnc2nc(COc3ccc(F)cc3)cn2c1 [Example 98, 6-(4-fluoro-2-methylsulfanyl-phenyl)-2-[(4-fluorophenoxy)methyl]imidazo[1,2-a]pyrimidine]
6.30 to 7.00	Cc1ccc(-c2cnc3nc(COc4ccccn4)cn3c2)c(F)c1 [Example 117, 6-(2-fluoro-4-methyl-phenyl)-2-(2-pyridyloxymethyl)imidazo[1,2-a]pyrimidine]
6.30 to 7.00	Cc1cc(F)ccc1-c1cnc2nc(COc3cccnc3)cn2c1 [Example 149, 6-(4-fluoro-2-methylphenyl)-2-(pyridin-3-yloxymethyl)imidazo[1,2-a]pyrimidine]
6.00 to 6.30	COc1cc(F)ccc1-c1cnc2nc(COc3cccc(F)c3)cn2c1 [Example 42, 6-(4-fluoro-2-methoxyphenyl)-2-(3-fluorophenoxymethyl)imidazo[1,2-a]pyrimidine]
6.30 to 7.00	Oc1cc(-c2cnc3nc(COc4cccc(F)c4)cn3c2)ccc1F [Example 43, 6-(4-fluoro-3-hydroxyphenyl)-2-(3-fluorophenoxymethyl)-imidazo[1,2-a]pyrimidine]
6.30 to 7.00	OCc1cc(F)ccc1-c1cnc2nc(COc3ccc(F)cc3)cn2c1 [Example 97, [5-fluoro-2-[2-[(4-fluorophenoxy)methyl]imidazo[1,2-a]pyrimidin-6-yl]phenyl]methanol]
6.30 to 7.00	OCc1cc(F)ccc1-c1cnc2nc(COc3ccnc(F)c3)cn2c1 [Example 170, 6-(4-fluoro-2-hydroxymethylphenyl)-2-(2-fluoropyridin-4-yloxymethyl)imidazo[1,2-a]pyrimidine]
6.30 to 7.00	Fc1cccc(OCc2cn3cc(-c4ccncc4Cl)cnc3n2)c1 [Example 45, 6-(3-chloropyridin-4-yl)-2-(3-fluorophenoxymethyl)imidazo[1,2-a]pyrimidine]

More lines, now with the values behind:

SMILES	pEC50
Oc1ccc(OCc2cn3cc(-c4ccc(F)cc4)cnc3n2)cc1 [Example 52, 4-[[6-(4-fluorophenyl)imidazo[1,2-a]pyrimidin-2-yl]methoxy]phenol]	6.30 to 7.00
NC(=O)OCc1cc(F)ccc1-c1cnc2nc(COc3ccccn3)cn2c1 [Example 195, [5-fluoro-2-[2-(2-pyridyloxymethyl)imidazo[1,2-a]pyrimidin-6-yl]phenyl]methyl carbamate]	6.30 to 7.00
Fc1ncccc1-c1cnc2nc(COc3ccccc3)cn2c1 [Example 29, 6-(2-fluoropyridin-3-yl)-2-phenoxymethylimidazo[1,2-a]pyrimidine]	6.30 to 7.00
Fc1ccc(-c2cnc3nc(COc4cccnc4)cn3c2)cc1 [Example 146, 6-(4-fluorophenyl)-2-(pyridin-3-yloxymethyl)imidazo[1,2-a]pyrimidine]	6.00 to 6.30
Cc1cc(F)ccc1-c1cnc2nc(COc3ccnc(F)c3)cn2n1 [Example 184, 2-(4-fluoro-2-methylphenyl)-6-((2-fluoropyridin-4-yloxy)methyl)imidazo[1,2-b][1,2,4]triazine]	6.30 to 7.00
CC(C)c1ccccc1-c1cnc2nc(COc3ccccn3)cn2c1 [Example 143, 6-(2-isopropylphenyl)-2-(2-pyridyloxymethyl)imidazo[1,2-a]pyrimidine]	6.00 to 6.30
Fc1ccc(-c2cnc3nc(COc4ccccn4)cn3c2)c2c1OCO2 [Example 110, 6-(7-fluoro-2H-benzo[1,3]dioxol-4-yl)-2-(pyridin-2-yloxymethyl)imidazo[1,2-a]pyrimidine]	6.30 to 7.00
Fc1cc(OCc2cn3cc(-c4ccccc4F)cnc3n2)ccn1 [Example 166, 6-(2-fluorophenyl)-2-(2-fluoropyridin-4-yloxymethyl)imidazo[1,2-a]pyrimidine]	6.30 to 7.00
COc1cc(-c2cnc3nc(COc4ccc(F)cc4)cn3c2)ccn1 [Example 99, 2-[(4-fluorophenoxy)methyl]-6-(2-methoxy-4-pyridyl)imidazo[1,2-a]pyrimidine]	6.00 to 6.30
Cc1ccccc1-c1cnc2nc(COc3ccc(F)cn3)cn2c1 [Example 126, 2-[(5-fluoro-2-pyridyl)oxymethyl]-6-(o-tolyl)imidazo[1,2-a]pyrimidine]	6.30 to 7.00
COc1cc(C#N)ccc1-c1cnc2nc(COc3ccc(F)cn3)cn2c1 [Example 137, 4-[2-[(5-fluoro-2-pyridyl)oxymethyl]imidazo[1,2-a]pyrimidin-6-yl]-3-methoxy-benzonitrile]	6.30 to 7.00
Fc1ccc(-c2cnc3nc(COc4ccccc4)cn3c2)c(F)n1 [Example 33, 6-(2,6-difluoropyridin-3-yl)-2-phenoxymethylimidazo[1,2-a]pyrimidine]	6.30 to 7.00
Fc1ccc(-c2cnc3nc(COc4ccnc(Cl)c4)cn3c2)cc1 [Example 172, 2-[(2-chloro-4-pyridyl)oxymethyl]-6-(4-fluorophenyl)imidazo[1,2-a]pyrimidine]	6.30 to 7.00
COc1cc(C#N)ccc1-c1cnc2nc(COc3ccccc3)cn2c1 [Example 23, 6-(4-cyano-2-methoxyphenyl)-2-phenoxymethylimidazo[1,2-a]pyrimidine]	6.30 to 7.00
Fc1ccc(OCc2cn3cc(-c4cncc(Cl)c4)cnc3n2)cc1 [Example 88, 6-(5-chloro-3-pyridyl)-2-[(4-fluorophenoxy)methyl]imidazo[1,2-a]pyrimidine]	6.30 to 7.00
Cc1ccncc1-c1cnc2nc(COc3ccccc3)cn2c1 [Example 32, 6-(4-methylpyridin-3-yl)-2-phenoxymethylimidazo[1,2-a]pyrimidine]	6.30 to 7.00
Fc1ccc(-c2cnc3nc(COc4ccncc4)cn3n2)c(F)c1 [Example 179, 2-(2,4-difluorophenyl)-6-((pyridin-4-yloxy)methyl)imidazo[1,2-b][1,2,4]triazine]	6.30 to 7.00
Clc1cnccc1-c1cnc2nc(COc3ccccc3)cn2c1 [Example 36, 6-(3-chloropyridin-4-yl)-2-phenoxymethylimidazo[1,2-a]pyrimidine]	6.30 to 7.00
Cc1c(F)cccc1-c1cnc2nc(COc3ccccn3)cn2c1 [Example 109, 6-(3-fluoro-2-methylphenyl)-2-(pyridin-2-yloxymethyl)imidazo[1,2-a]pyrimidine]	6.30 to 7.00
COc1ccccc1-c1cnc2nc(COc3ccccc3)cn2c1 [Example 4, 6-(2-methoxyphenyl)-2-phenoxymethylimidazo[1,2-a]pyrimidine]	6.30 to 7.00
COc1cc(Cl)ccc1-c1cnc2nc(COc3ccccn3)cn2c1 [Example 111, 6-(4-chloro-2-methoxyphenyl)-2-(pyridin-2-yloxymethyl)imidazo[1,2-a]pyrimidine]	6.30 to 7.00
OCc1cc(F)ccc1-c1cnc2nc(COc3cncc(F)c3)cn2c1 [Example 177, [5-fluoro-2-[2-[(5-fluoro-3-pyridyl)oxymethyl]imidazo[1,2-a]pyrimidin-6-yl]phenyl]methanol]	6.00 to 6.30
